Source: patent US12644117B2, “Method of enabling pooled-library based nucleic acid constructs screening” (priority 2019, dated 2026)

Test system: recombinant ACMNPV baculovirus
Experiment: Baculovirus spreading in Sf9 insect cells infected with YFP-expressing recombinant baculovirus, read by fluorescence microscopy
Assay type: cell-based, Spodoptera Frugiperda
Protocol: A recombinant ACMNPV baculovirus was generated by homologous recombination and expressed a target fluorescent protein. The fluorescent protein was the Yellow Fluorescent Protein (YFP) from the organism Aequorea Victoria. • Three hours before infection 0.5 million Sf9 insect cells (ThermoFisher) were seeded into two wells of a 6 well-plate (ThermoFisher). Sf9 cells are cultivated in sf900 II media (ThermoFisher). • The initial viral stock titer was estimated to be approximately 1 million baculoviruses per milliliter. The recombinant baculovirus was added to the cells to reach a MOI of approximately 0.02. The added virus volume per well was 10 micolitre. The virus was resuspended in sf900 II media (ThermoFisher). • Cells were incubated in a 27° C. incubator. Four hours after infection, attached cells are washed with PBS to remove baculoviruses which have not penetrated into cells. The wash consisted of three times with 1 ml per cell of PBS media. • Chloroquine diphosphate salt (CC6628 from Sigma) was added to a final concentration of 0.8 mM. In the control condition insect cell media without chloroquine was added to the cells. Cells were incubated in a 27° C. incubator.
Fluorescence microscopy was performed 2 days after infection (FIG. 2A).
In the presence of chloroquine, the proportion of fluorescent cells is constant despite an increase of fluorescence intensity by cell (FIG. 2B), indicating accumulation of expressed YFP protein and virus without increasing the number of infected cells. […] In addition the virus produced high quality protein correctly folded within the individual cells.

[1] = MOI approximately 0.02, chloroquine 0.8 mM, five days after infection (FIG. 2B)

## CCN(CC)CCCC(C)Nc1ccnc2cc(Cl)ccc12 (stereo not drawn) [chloroquine, Chloroquine]
MOI approximately 0.02, chloroquine 0.8 mM added four hours after infection, 2 days after infection (FIG. 2A)
  proportion of fluorescent cells: around 1%
[1]
  fluorescence intensity by cell (accumulation of expressed YFP protein): increase
  proportion of fluorescent cells: constant
